# Assay results reported in patent US9937194B1, “Compounds and methods for treating inflammatory diseases” (priority 2009, dated 2018).
# “And” between values parts separate entries of the source, which are not always exact repeats. Equal values may be shown once. Read-outs that look alike come from different tables or passages of the source.
# Key:
# [1] = tested on: HDAC activity; assay: H2O2-induced reduction of HDAC activity in PMA-differentiated U937 cells; type: cell-based, human; settings: for restoration of H2O2-reduced HDAC activity (%): test concentration not given, bracketed second value not explained
# Experimental: In cell HDAC assay. Cells are incubated with Fluor de Lys™ substrate for 1 hr before lyses. Total HDAC activity from whole cell extracts is measured using the HDAC Fluorimetric Assay/Drug Discovery Kit (BIOMOL® International, Inc., Plymouth Meeting, Pa.).
# HDAC expression: In cell HDAC activity assay: U937 is differentiated to macrophage type cells by PMA for 3 days. HDAC fluorescent substrate (Biomol) is added before exposure of oxidative stress (H2O2, 200 μM) or Tobacco smoke conditioned medium for 4 hrs. HDAC activity is measured (Biomol kit). Compounds at different concentrations are treated 20 min before oxidative stress treatment.
# PMA-differentiated macrophage-like cells are pretreated with compounds described herein for 20 min. After H2O2 (200 μM) stimulation for 4 hrs, HDAC activity is assayed. Data are expressed as fold changes against positive control treated with H2O2 only. Values represent means of four experiments±SEM.
# [2] = tested on: U937 cells; assay: H2O2-induced steroid insensitivity in U937 cells (dexamethasone IC50 on TNFα-induced IL-8); type: cell-based, human; settings: highest concentration tested (100 μM); H2O2 200 μM
# Experimental: (§1) Cytokine ELISA. LPS-induced IL-8, TNFα concentrations and TNFα-induced IL-8 concentrations are determined by sandwich ELISA according to the manufacturer's instructions (R&D Systems Europe). IC50 values for dexamethasone on IL-8 production are calculated using the computer program Prism 4.0 (GraphPad Software Inc., San Diego, Calif.) as a marker for steroid sensitivity.
# Restoration of steroid sensitivity. U937 cells: U937 are treated with oxidative stress (H2O2, 200 μM or 0.15 dilution CSM (cigarette smoke conditioned medium)) and 4 hours later, stimulated with TNFα (10 ng/ml) in the presence of dexamethasone (10^−11-10^−6M). Supernatant and cells are collected 24 hrs after stimulation and IL-8 is measured by conventional ELISA. As the index of corticosteroid sensitivity, IC50 of dexamethasone is calculated. Test compounds are treated 20 min before oxidative stress treatment.
# Effects of compounds on H2O2-induced steroid insensitivity in U937 cells. Cells stimulated with H2O2 (200 μM) overnight are incubated with compounds described herein for 30 min under H2O2 (200 μM) exposure. The cells are treated with dexamethasone (10^−11 to 10^−6 M) for 20 min, followed by the TNFα stimulation overnight. TNFα-induced IL-8 release is evaluated by ELISA and IC50 values for dexamethasone on IL-8 production are calculated using Prism. Data are expressed as fold changes against positive control treated with H2O2 only. Values represent means of four experiments±SEM. H2O2 exposure reduces dexamethasone sensitivity by approximately 4 fold based on calculated IC50 values of TNFα-induced IL-8 production.
# [3] = tested on: A/J mice exposed to LPS; assay: Anti-inflammatory activity in vivo: A/J mice exposed to LPS intranasally; settings: intranasal, 1 hr before LPS challenge
# [4] = tested on: MMP9; assay: PMA-induced MMP9 expression in U937 cells (gelatin zymography); type: cell-based, human; settings: for MMP9 inhibition (%): test concentration not given, bracketed second value not explained
# Experimental: Zymography. MMP9 enzyme activity is measured by gelatin zymography. 5 μl of supernatants were diluted with 5 μl Laemli sample buffer (Bio-Rad) and are loaded on a Novex® 10% Zymogram (Gelatin) gel (Invitrogen). After electrophoresis (90 min, 125 V, 35 mA, 5 W) gels are incubated with 1× Novex® zymogram renaturing buffer (Invitrogen) for 30 min at room temperature with gentle agitation. Gels are then rinsed in 1× Novex® zymogram developing buffer (Invitrogen) for 30 min at room temperature with gentle agitation prior to overnight incubation in the developing buffer at 37° C. After incubation the gels are stained using the colloidal blue staining kit (Invitrogen) with buffer containing 20% methanol and 70% distilled water to visualize the zymogen bands. Relevant band intensities are quantified by densitometric analysis using the UVP GelDoc-It system.
# Effects of compounds on PMA-induced MMP9 expression in U937 cells. U937 cells are pretreated with compounds described herein for 1 hr, followed by PMA (50 ng/ml) treatment for 48 hrs. After 48 hrs supernatants are collected for zymography. MMP9 enzyme activity is measured by gelatin zymography. Data are expressed as fold changes against positive control treated with PMA only. Values represent means of three experiments±SEM.
# [5] = tested on: TNFα; assay: LPS-induced TNFα release in PMA-differentiated U937 cells (ELISA); type: cell-based, human; settings: for TNFα inhibition (%): test concentration not given
# Experimental: as §1
# (§2) Effects of compounds on LPS-induced IL-8 and TNFα release in PMA-differentiated U937 cells. PMA-differentiated macrophage-like cells are pretreated with compounds described herein for 1 hr, followed by LPS (100 ng/ml) stimulation for 4 hrs. LPS-induced IL-8 and TNFα release is evaluated by ELISA. Values represent means of three experiments±SEM.
# [6] = type: cell-based
# Experimental: The human monocytic cell line U937 and the human type II alveolar epithelial carcinoma cell line A549 were obtained from the American Type Culture Collection (ATCC, Rockville, Md.). PBMCs from COPD patients were obtained in Brompton hospital and separated by AccuSPIN (Sigma-Aldrich, Poole, UK). Cells were cultured in complete growth medium (Sigma-Aldrich) (RPMI 1640 for U937, PBMCs, and Dulbecco's modified essential medium (DMEM) for A549) supplemented with 10% fetal bovine serum (FBS) and 1% L-glutamine at 37° C. in a humidified atmosphere with 5% CO2. U937 were differentiated into an adherent macrophage-like morphology by exposure to PMA (50 or 100 ng/ml) for 48 hrs in complete growth medium. Cell viability was assessed microscopically by trypan blue staining. Cell toxicity was determined by MTT assay as needed. This study was approved by the ethics committee of the Royal Brompton Hospitals, and all subjects gave written informed consent.
# [7] = tested on: Akt; assay: H2O2-induced phosphorylation of Akt in PMA-differentiated U937 cells (western blot); type: cell-based, human; settings: PMA-differentiated U937; H2O2 1 mM 30 min
# Experimental: Cell Lysis and Western Blotting. Whole cell protein extracts are prepared using modified RIPA buffer (50 mM Tris HCL pH 7.4, 0.5% NP-40, 0.25% Na-deoxycholate, 150 mM NaCl with freshly added complete protease (Roche). Phosphatase inhibitor (Active Motif) is also added when required. Protein concentration is determined using the Bio-Rad Protein Assay (Bio-Rad). Proteins are separated by SDS-PAGE under denaturing conditions, and electrotransferred to a nitrocellulose membrane (Amersham Biosciences, Amersham, U.K.) (Western blotting). The membranes are blocked in TBS containing 0.05% Tween 20 and 5% non-fat dried milk, and then incubated with anti-pAkt or Akt antibody followed by an horse radish peroxidase-conjugated secondary antibody (Dako UK Ltd., Ely, UK). Bound antibodies are visualized by ECL Plus (GE Healthcare UK Ltd., Little Chalfont, UK). The band density is calculated by densitometry (UVP Bioimaging Systems, Cambridge, UK) using Labworks software (Ultra-Violet Products, Cambridge, UK).
# Effects of compounds on H2O2-induced phosphorylation of Akt in PMA-differentiated U937 cells. PMA-differentiated macrophage-like cells are pretreated with compounds described herein for 20 min. After H2O2 (1 mM) stimulation for 30 min, cells are lysed. Phosphorylation levels of Akt are measured by western blot. Data are calculated relative to total protein, and expressed as fold changes against positive control treated with H2O2 only. Values represent means of three or four experiments±SEM.
# [8] = tested on: IL-8; assay: LPS-induced IL-8 release in PMA-differentiated U937 cells (ELISA); type: cell-based, human; settings: for IL-8 inhibition (%): test concentration not given
# Experimental: as §1, §2
# [9] = tested on: E. coli ATCC 25922; assay: MIC; type: cell-based; settings: in µg/mL
# [10] = tested on: S. aureus MRSA 33591; assay: MIC; type: cell-based
# [11] = tested on: H. influenzae LC002; assay: MIC; type: cell-based
# [12] = tested on: E. faecium ATCC 19434; assay: MIC; type: cell-based
# [13] = tested on: S. aureus 96:11480 (MLS-I); assay: MIC; type: cell-based; set-up: unit not given beside the values
# [14] = tested on: H. influenzae ATCC 49247; assay: MIC; type: cell-based
# [15] = tested on: S. pneumoniae 303 (ErmB); assay: MIC; type: cell-based
# [16] = tested on: S. typhimurium ATCC 14028; assay: MIC; type: cell-based; settings: in µg/mL
# [17] = tested on: S. pneumoniae ATCC 49619; assay: MIC; type: cell-based
# [18] = tested on: K. pneumonia 13883; assay: MIC; type: cell-based; settings: in µg/mL
# [19] = tested on: S. aureus ATCC 29213 (MSSA) MLS-S; assay: MIC; type: cell-based
# [20] = tested on: S. pneumoniae 163 (MefA); assay: MIC; type: cell-based; settings: in µg/mL
# [21] = tested on: S. pyogenes ATCC 19615; assay: MIC; type: cell-based; settings: in µg/mL
structure (smiles),measurement,setting,value
"CC[C@H]1OC(=O)[C@H](C)[C@@H](O[C@H]2C[C@@](C)(OC)[C@@H](O)[C@H](C)O2)[C@H](C)[C@@H](O[C@@H]2O[C@H](C)C[C@H](N(C)C)[C@H]2O)[C@](C)(O)C[C@@H](C)CN(C)[C@H](C)[C@@H](O)[C@]1(C)O [AZI, azithromycin, reference compound]",restoration of HDAC activity compared with Example 33,"[1]; PMA-differentiated U937, H2O2 200 μM 4 hrs",only at much higher doses than Example 33
same,HDAC activity reached compared with untreated controls,"[1]; PMA-differentiated U937, H2O2 200 μM, comparators at highest doses tested",only restore HDAC activity to levels comparable to untreated controls
same,restoration of H2O2-reduced HDAC activity (%),[1],34%
same,restoration of dexamethasone sensitivity,[2],"None of ERY, CLR, or AZI restored dexamethasone sensitivity"
same,anti-inflammatory action in LPS-exposed A/J mice,[3],have anti-inflammatory action
same,MMP9 inhibition (%),[4],33 (25) %
same,inhibition of LPS-induced TNFα release compared with Example 33,[5]; LPS 100 ng/ml 4 hrs,did not show any inhibition at any concentration tested
same,TNFα inhibition (%),[5],31%
same,Cell Toxicity (% cell death),[6]; human,−16%
same,inhibition of Akt phosphorylation compared with Example 33,[7],only at much higher concentrations than Example 33
same,inhibition of LPS-induced IL-8 release compared with Example 33,[8]; LPS 100 ng/ml 4 hrs,did not show any inhibition at any concentration tested
same,IL-8 inhibition (%),[8],44%
CCC1OC(=O)C(C)C(=O)C(C)C(OC2OC(C)CC(N(C)C)C2O)C(C)(OC)CC(C)C(=O)C(C)C2N(CCCCN)C(=O)OC12C (centres unmarked) [Example 1],MIC E. coli ATCC 25922,[9],>64
same,MIC S. aureus MRSA 33591,[10],> 64 µg/mL
same,MIC H. influenzae LC002,[11],> 64 µg/mL
same,MIC E. faecium ATCC 19434,[12],4 µg/mL
same,MIC S. aureus 96:11480 (MLS-I),[13],8
same,MIC H. influenzae ATCC 49247,[14],> 64 µg/mL
same,concentration at which the H2O2-induced reduction in HDAC activity is restored,"[1]; PMA-differentiated U937, pretreated 20 min, H2O2 200 μM 4 hrs",≥ 100 µM
same,restoration of H2O2-reduced HDAC activity (%),[1],68 (53) %
same,MIC S. pneumoniae 303 (ErmB),[15],> 64 µg/mL
same,MIC S. typhimurium ATCC 14028,[16],>64
same,concentration at which PMA-induced MMP9 up-regulation is inhibited,"[4]; U937, pretreated 1 hr, PMA 50 ng/ml 48 hrs",≥ 300 µM
same,MMP9 inhibition (%),[4],55 (43) %
same,TNFα inhibition (%),[5],73%
same,Cell Toxicity (% cell death),[6]; test concentration not given,6%
same,MIC S. pneumoniae ATCC 49619,[17],≤ 0.125 µg/mL
same,MIC K. pneumonia 13883,[18],>64
same,MIC S. aureus ATCC 29213 (MSSA) MLS-S,[19],8 µg/mL
same,IL-8 inhibition (%),[8],72%
same,MIC S. pneumoniae 163 (MefA),[20],0.5 and 1
same,MIC S. pyogenes ATCC 19615,[21],0.25 and 0.5
